Reference: ChEMBL document CHEMBL4325908, “Ligand-based design, synthesis and biological evaluation of xanthine derivatives as LSD1/KDM1A inhibitors” (Eur J Med Chem, 2019)

Tests used:
MGC-803 [1] = assay: Antiproliferative activity against human MGC803 cells after 72 hrs by MTT assay; conditions: MGC-803, 72 h
[2] = biological target: Indoleamine 2,3-dioxygenase 1 (Homo sapiens, UniProt P14902); assay: Inhibition of IDO1 (unknown origin)
[3] = biological target: Lysine-specific histone demethylase 1A (Homo sapiens, UniProt O60341); assay: Inhibition of full length recombinant LSD1 (unknown origin) expressed in Escherichia coli BL21(DE3) using H3K4me2 as substrate after 30 mins in presence of FAD by amplex red reagent based fluorescence assay
MGC-803 [4] = assay: Antiproliferative activity against LSD1 knock down human MGC803 cells after 72 hrs by MTT assay; type: functional, cell-based; conditions: MGC-803, 72 h
[5] = biological target: Bromodomain-containing protein 4 (Homo sapiens) (UniProt O60885); assay: Inhibition of BRD4 (unknown origin) at 25 uM relative to control
MGC-803 [6] = assay: Ratio of IC50 for LSD1 knock down human MGC803 cells to IC50 for human MGC803 cells; type: functional
MAO-B [7] = biological target: T1, MAO-B (Homo sapiens, UniProt P27338); assay: Inhibition of full length recombinant FLAG-tagged human MAO-B expressed in baculovirus infected sf9 cells at 1 uM preincubated for 15 mins followed by luciferin derived substrate addition measured after 60 mins by luciferase reporter gene assay relative to control; conditions: probe luciferin derived substrate
T1 sequence (P27338 whole entry): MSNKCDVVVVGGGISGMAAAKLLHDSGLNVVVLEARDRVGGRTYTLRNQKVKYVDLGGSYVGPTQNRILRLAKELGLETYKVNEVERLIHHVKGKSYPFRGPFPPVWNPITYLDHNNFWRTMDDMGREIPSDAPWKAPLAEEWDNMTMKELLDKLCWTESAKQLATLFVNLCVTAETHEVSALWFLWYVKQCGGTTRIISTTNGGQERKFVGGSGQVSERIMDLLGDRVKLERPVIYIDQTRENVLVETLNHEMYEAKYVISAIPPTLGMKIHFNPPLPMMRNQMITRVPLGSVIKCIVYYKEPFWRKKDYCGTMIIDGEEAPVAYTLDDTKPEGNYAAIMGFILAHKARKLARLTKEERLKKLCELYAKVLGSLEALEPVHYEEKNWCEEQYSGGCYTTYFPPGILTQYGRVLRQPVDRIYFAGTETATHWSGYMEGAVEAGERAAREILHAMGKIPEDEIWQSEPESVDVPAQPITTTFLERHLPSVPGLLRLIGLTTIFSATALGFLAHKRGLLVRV

MAO-B [8] = biological target: T1, MAO-B; assay: Inhibition of full length recombinant FLAG-tagged human MAO-B expressed in baculovirus infected sf9 cells at 0.1 uM preincubated for 15 mins followed by luciferin derived substrate addition measured after 60 mins by luciferase reporter gene assay relative to control; conditions: probe luciferin derived substrate
MAO-A [9] = biological target: T2, MAO-A (Homo sapiens, UniProt P21397); assay: Inhibition of full length recombinant FLAG-tagged human MAO-A expressed in baculovirus infected sf9 cells at 0.1 uM preincubated for 15 mins followed by luciferin derived substrate addition measured after 60 mins by luciferase reporter gene assay relative to control; conditions: probe luciferin derived substrate
T2 sequence (P21397 whole entry): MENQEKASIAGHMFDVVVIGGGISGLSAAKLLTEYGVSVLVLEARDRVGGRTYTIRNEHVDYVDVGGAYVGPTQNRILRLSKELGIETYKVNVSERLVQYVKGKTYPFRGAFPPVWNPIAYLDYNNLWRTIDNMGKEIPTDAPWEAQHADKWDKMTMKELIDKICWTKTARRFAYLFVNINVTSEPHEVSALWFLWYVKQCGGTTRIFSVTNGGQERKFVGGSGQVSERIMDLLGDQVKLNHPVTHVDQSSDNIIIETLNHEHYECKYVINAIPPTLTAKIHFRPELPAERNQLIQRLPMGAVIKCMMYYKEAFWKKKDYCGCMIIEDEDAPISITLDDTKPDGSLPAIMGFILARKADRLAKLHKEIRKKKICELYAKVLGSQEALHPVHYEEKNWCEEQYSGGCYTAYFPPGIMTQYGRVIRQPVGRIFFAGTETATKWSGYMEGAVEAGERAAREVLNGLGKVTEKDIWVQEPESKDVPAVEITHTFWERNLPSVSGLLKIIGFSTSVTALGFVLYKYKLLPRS

MAO-A [10] = biological target: T2, MAO-A; assay: Inhibition of full length recombinant FLAG-tagged human MAO-A expressed in baculovirus infected sf9 cells at 1 uM preincubated for 15 mins followed by luciferin derived substrate addition measured after 60 mins by luciferase reporter gene assay relative to control; conditions: probe luciferin derived substrate

Sequence of Indoleamine 2,3-dioxygenase 1 (P14902 whole entry): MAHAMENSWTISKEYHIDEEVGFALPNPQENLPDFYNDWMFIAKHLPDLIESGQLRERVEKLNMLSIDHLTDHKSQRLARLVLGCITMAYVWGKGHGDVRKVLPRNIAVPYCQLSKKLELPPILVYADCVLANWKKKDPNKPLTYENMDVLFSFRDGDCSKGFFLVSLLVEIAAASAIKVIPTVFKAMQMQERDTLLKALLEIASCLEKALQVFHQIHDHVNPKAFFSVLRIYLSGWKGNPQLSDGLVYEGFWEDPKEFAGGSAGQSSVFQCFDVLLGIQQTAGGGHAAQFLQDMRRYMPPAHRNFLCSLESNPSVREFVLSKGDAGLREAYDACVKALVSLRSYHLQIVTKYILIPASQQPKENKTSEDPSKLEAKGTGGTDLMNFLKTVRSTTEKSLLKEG

| IC50 (MGC-803 [1]) | IC50 [2] | IC50 [3] | IC50 (MGC-803 [4]) | inhibition [5] | inhibition at 1 h, 1 µM (MAO-B [7]) | inhibition at 1 h, 0.1 µM (MAO-B [8]) | inhibition at 1 h, 0.1 µM (MAO-A [9]) | inhibition at 1 h, 1 µM (MAO-A [10]) | Compound | Ratio IC50 (MGC-803 [6]) |
| --- | --- | --- | --- | --- | --- | --- | --- | --- | --- | --- |
| 0.687 µM | 96.9 µM | 14.2 µM | 2.02 µM | 49% | – | – | – | – | CCCn1c(SCc2ccc(F)cc2)nc2c1c(=O)[nH]c(=O)n2C | 2 - 3 |
| – | – | 6.45 µM | – | – | – | – | – | – | CCCn1c(S)nc2c1c(=O)[nH]c(=O)n2C | – |
| – | – | 25.7 µM | – | – | – | – | – | – | CCCn1c(SCc2ccc(Cl)cc2)nc2c1c(=O)[nH]c(=O)n2C | – |
| 2.46 µM | 96.9 µM | 8.89 µM | 4.97 µM | 52% | 61% | 16% | 9% | 20% | CCCn1c(SCc2cccc(C)c2)nc2c1c(=O)[nH]c(=O)n2C | 2 - 3 |
